From paper PMC12144822 (Parasites & Vectors, 2025)
pEC50: −log10 of the molar value.

Key:
Experiment in all cases: Two-electrode voltage-clamp concentration-activation by the natural agonist, receptor expressed in Xenopus oocytes
Type in all cases: cell-based
Clu-GABA α1β2γ2 = Clu-GABA α1β2γ2 (Canis lupus familiaris, UniProt A0A2H4NNI8+A0A8I3RPG5+E2RSQ0)
Source text: (§1) Complementary DNA (cDNA) encoding for the human GABAA proteins α1 (NM_001127645.2), α2 (NM_001377146.1), α3 (KJ620007.1), α4 (NM_000809.4), α5 (NM_000810.4), α6 (NM_000811.3), β2 (XM_054352312.1), β3 (M82919.1), γ2 (NM_000816.3) and δ (NM_000815.5) were ordered from Genewiz (www.genewiz.com; Leipzig, Germany); for each gene, GenBank accession numbers are provided in parentheses. When necessary, silent mutations were introduced to break NheI or XhoI internal restriction sites. The corresponding open reading frames (ORF) were cloned into the pT7-TS transcription vector (introducing X. laevis β-globin untranslated cDNA to the 5’ and 3’ ends of the gene), following a procedure described in detail in a previous publication. The same process was used to obtain cDNA encoding canine GABAA proteins α4 (XM_025435560.1), α6 (XM_022417729.1) and δ (XM_005620414.2). Gene α2 (XM_025435664.1), α3 (XM_549343.5), α5 (XM_545805.6) and β3 (XM_025437408.1) were obtained by PCR; GenBank reference accession numbers are provided in parentheses. RNA extraction, cDNA synthesis and PCR amplification were performed as described previously. Total RNA was extracted from a piece of dog brain (Beagle breed; Canis lupus familiaris) from which 1 µg of total RNA (DNase-treated) was reverse-transcribed to cDNA using a (dT)30 primer and SuperScript III Reverse Transcriptase (Invitrogen, Thermo Fisher Scientific, Waltham, MA, USA). Gene-specific primers (Additional file 1: Table S1) were designed using Primer 3 software (http://frodo.wi.mit.edu/). […] The cycling conditions were: 98 °C for 30 s; then 38 cycles of 98 °C for 10 s, 58 °C for 30 s and 72 °C for 90 s; followed by 72 °C for 5 min. The dog subunits α1 (XM_546261.5), β2 (XM_014113040.1) and γ2 (XM_546259.5) had been previously amplified and described in a study by Rufener et al..
(§2) Defoliculated X. laevis oocytes ordered from Ecocyte Bioscience (Dortmund, Germany) were microinjected with 15–25 nl of cRNA solution (5–50 ng/μl) per oocyte using an automated injector (Roboinject; Multi Channel Systems MCS GmbH, Reutlingen, Germany) and then incubated at 18 °C. All recordings were made 1–5 days post-cRNA injection and were performed at 18 ± 4 °C. Cells were superfused with OR2 medium (NaCl 88 mM, KCl 2.5 mM, HEPES 5 mM, CaCl2•2H2O 1.8 mM, MgCl2•7H2O 1.0 mM, pH 7.4). To ensure that γ2 subunits were integrated into the heteropentamers, we injected fivefold more γ2 than the other subunit cRNAs. Diazepam is a positive allosteric modulator of GABAR only if γ2 subunits are present. Therefore, we used this method to confirm the presence of human and dog GABAA receptor containing the γ2 subunit.
(§3) Voltage-clamp measurements were performed as described by Rufener et al.. Oocytes were impaled with two electrodes filled with 3 M KCl, and their membrane potentials were maintained at − 80 mV throughout the experiment. […] Recordings were performed using an automated process equipped with standard two-electrode voltage-clamp configuration (HiClamp system; Multi Channel Systems MCS GmbH). Data were filtered at 10 Hz, captured at 100 Hz and analyzed using proprietary data acquisition and analysis software in MATLAB (Mathworks Inc., Natick, MA, USA). Additional analyses were performed using Excel (Microsoft, Redmond, WA, USA). […] Graphing the maximum inward currents against the log of agonist concentration produces typical concentration-activation and concentration-inhibition curves, which can be accurately described using individual Hill equations.

Clu-GABA α2β2γ2 = Clu-GABA α2β2γ2 (Canis lupus familiaris, UniProt A0A8I3RPG5+A0A8I3S1N5+E2RSQ0)
Source text: as §1, §2, §3

Clu-GABA α2β3γ2 = Clu-GABA α2β3γ2 (Canis lupus familiaris, UniProt A0A8I3NUI4+A0A8I3S1N5+E2RSQ0)
Source text: as §1, §2, §3

Clu-GABA α3β2γ2 = Clu-GABA α3β2γ2 (Canis lupus familiaris, UniProt A0A8I3PRS3+A0A8I3RPG5+E2RSQ0)
Source text: as §1, §2, §3

Clu-GABA α5β2γ2 = Clu-GABA α5β2γ2 (Canis lupus familiaris, UniProt A0A8I3PC22+A0A8I3RPG5+E2RSQ0)
Source text: as §1, §2, §3

Hsa-GABA α2β2γ2 = Hsa-GABA α2β2γ2 (Homo sapiens, UniProt P18507+P47869+P47870); design: The corresponding open reading frames (ORF) were cloned into the pT7-TS transcription vector; expressed in transfected cells; host or cells: Xenopus laevis oocytes, cRNA injection; conditions: concentration-activation curve
Source text: as §1, §2, §3

Hsa-GABA α2β3γ2 = Hsa-GABA α2β3γ2 (Homo sapiens, UniProt P18507+P28472+P47869); design: The corresponding open reading frames (ORF) were cloned into the pT7-TS transcription vector; expressed in transfected cells; host or cells: Xenopus laevis oocytes, cRNA injection; conditions: concentration-activation curve
Source text: as §1, §2, §3

[1] = agonist, 10 s applications, Xenopus oocytes, −80 mV

Chain of Clu-GABA α5β2γ2 (A0A8I3PC22 32-462): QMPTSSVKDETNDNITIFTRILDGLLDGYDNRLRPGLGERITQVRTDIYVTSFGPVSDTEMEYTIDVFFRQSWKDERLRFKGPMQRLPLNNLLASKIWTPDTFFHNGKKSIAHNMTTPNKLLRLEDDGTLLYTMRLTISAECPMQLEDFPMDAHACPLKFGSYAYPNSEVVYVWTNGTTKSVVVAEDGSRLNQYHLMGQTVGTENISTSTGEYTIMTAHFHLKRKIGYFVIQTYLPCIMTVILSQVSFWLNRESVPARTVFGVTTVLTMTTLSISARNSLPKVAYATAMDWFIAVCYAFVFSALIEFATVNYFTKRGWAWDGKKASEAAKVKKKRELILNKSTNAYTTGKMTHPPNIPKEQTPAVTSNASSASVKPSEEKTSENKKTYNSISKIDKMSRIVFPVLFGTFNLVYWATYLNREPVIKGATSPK
Chain of Clu-GABA α5β2γ2 (A0A8I3RPG5 25-473): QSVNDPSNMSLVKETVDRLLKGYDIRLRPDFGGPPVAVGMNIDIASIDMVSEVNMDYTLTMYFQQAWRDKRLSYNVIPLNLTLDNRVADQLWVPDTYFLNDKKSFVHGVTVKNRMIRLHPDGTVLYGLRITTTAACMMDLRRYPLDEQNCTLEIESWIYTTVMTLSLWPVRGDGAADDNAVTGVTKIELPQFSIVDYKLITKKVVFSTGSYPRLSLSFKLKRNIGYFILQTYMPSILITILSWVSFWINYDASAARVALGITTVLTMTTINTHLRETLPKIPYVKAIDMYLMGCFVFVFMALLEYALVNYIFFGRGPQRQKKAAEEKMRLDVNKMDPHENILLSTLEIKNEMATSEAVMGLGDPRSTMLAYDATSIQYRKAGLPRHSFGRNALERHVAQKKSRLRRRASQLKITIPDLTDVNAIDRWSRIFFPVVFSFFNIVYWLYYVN
Chain of Clu-GABA α5β2γ2 (E2RSQ0 40-467): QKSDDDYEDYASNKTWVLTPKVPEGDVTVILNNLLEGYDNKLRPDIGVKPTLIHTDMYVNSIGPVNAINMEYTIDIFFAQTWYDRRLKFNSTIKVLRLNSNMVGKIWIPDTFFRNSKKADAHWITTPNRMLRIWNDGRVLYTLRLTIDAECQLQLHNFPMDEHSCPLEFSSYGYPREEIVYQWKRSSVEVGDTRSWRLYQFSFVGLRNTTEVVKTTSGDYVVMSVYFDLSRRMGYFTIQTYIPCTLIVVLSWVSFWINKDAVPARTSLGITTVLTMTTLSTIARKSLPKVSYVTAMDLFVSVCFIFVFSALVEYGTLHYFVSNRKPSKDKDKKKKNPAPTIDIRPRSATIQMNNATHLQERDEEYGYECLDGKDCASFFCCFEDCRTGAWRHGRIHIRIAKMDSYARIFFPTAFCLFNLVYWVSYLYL
Chain of Clu-GABA α1β2γ2 (A0A2H4NNI8 28-456): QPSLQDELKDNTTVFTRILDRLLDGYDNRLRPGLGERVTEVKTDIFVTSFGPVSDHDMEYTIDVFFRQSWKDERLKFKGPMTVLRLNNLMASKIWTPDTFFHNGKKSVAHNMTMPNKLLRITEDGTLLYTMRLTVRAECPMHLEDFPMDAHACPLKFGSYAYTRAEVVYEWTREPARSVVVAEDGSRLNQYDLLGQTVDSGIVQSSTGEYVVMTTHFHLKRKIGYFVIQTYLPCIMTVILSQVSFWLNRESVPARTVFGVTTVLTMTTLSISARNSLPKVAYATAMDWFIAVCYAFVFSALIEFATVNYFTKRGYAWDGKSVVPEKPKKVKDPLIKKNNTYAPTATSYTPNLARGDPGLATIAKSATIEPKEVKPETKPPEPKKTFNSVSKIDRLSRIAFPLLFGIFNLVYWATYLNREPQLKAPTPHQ
Chain of Clu-GABA α1β2γ2 (A0A8I3RPG5 25-473): as the sequence (A0A8I3RPG5 25-473) above
Chain of Clu-GABA α1β2γ2 (E2RSQ0 40-467): as the sequence (E2RSQ0 40-467) above
Chain of Clu-GABA α2β3γ2 (A0A8I3S1N5 29-451): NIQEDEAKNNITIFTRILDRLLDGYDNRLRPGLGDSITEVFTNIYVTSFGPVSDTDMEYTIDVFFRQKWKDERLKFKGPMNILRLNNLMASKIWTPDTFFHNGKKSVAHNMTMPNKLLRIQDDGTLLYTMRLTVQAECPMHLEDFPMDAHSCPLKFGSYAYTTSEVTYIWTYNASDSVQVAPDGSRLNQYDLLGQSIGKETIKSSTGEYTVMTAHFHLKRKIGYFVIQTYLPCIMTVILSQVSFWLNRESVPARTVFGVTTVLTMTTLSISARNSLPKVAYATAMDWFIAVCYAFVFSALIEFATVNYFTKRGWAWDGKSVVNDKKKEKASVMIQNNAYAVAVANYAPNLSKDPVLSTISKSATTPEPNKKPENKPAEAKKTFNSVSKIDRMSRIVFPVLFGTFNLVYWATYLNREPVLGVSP
Chain of Clu-GABA α2β3γ2 (A0A8I3NUI4 101-496): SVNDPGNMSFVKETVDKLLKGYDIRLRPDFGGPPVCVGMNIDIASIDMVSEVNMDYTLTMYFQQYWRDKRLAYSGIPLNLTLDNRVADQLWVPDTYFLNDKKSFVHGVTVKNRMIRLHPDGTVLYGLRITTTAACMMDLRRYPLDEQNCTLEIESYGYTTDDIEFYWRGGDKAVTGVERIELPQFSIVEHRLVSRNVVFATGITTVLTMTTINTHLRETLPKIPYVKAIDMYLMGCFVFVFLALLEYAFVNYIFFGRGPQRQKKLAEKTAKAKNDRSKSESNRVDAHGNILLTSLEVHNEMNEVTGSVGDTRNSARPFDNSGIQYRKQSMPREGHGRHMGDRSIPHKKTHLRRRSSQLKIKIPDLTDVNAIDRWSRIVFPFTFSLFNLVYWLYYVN
Chain of Clu-GABA α2β3γ2 (E2RSQ0 40-467): as the sequence (E2RSQ0 40-467) above
Chain of Clu-GABA α2β2γ2 (A0A8I3S1N5 29-451): as the sequence (A0A8I3S1N5 29-451) above
Chain of Clu-GABA α2β2γ2 (A0A8I3RPG5 25-473): as the sequence (A0A8I3RPG5 25-473) above
Chain of Clu-GABA α2β2γ2 (E2RSQ0 40-467): as the sequence (E2RSQ0 40-467) above
Chain of Clu-GABA α3β2γ2 (A0A8I3PRS3 29-259): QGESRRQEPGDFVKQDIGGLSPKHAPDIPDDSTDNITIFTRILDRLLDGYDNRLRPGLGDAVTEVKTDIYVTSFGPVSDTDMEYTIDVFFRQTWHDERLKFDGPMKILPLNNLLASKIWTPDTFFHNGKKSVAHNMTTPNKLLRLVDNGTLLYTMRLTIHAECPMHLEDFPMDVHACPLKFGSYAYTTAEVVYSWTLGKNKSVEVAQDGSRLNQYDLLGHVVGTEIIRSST
Chain of Clu-GABA α3β2γ2 (A0A8I3RPG5 25-473): as the sequence (A0A8I3RPG5 25-473) above
Chain of Clu-GABA α3β2γ2 (E2RSQ0 40-467): as the sequence (E2RSQ0 40-467) above
Chain of Hsa-GABA α2β2γ2 (P47869 29-451): as the sequence (A0A8I3S1N5 29-451) above
Chain of Hsa-GABA α2β2γ2 (P47870 26-474 isoform P47870-1 limits assumed): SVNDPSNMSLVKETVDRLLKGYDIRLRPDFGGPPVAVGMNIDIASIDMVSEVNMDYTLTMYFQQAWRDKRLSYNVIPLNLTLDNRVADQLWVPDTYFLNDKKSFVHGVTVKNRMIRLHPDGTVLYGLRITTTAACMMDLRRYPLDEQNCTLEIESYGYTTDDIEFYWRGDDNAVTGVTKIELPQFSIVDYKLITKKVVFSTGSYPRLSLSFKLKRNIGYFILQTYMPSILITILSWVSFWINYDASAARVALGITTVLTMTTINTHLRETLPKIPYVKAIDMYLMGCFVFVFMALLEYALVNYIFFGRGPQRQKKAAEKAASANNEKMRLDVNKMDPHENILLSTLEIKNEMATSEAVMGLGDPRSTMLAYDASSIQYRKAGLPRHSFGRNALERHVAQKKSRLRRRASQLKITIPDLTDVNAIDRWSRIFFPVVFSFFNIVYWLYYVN
Chain of Hsa-GABA α2β2γ2 (P18507 40-467 isoform P18507-1 limits assumed): as the sequence (E2RSQ0 40-467) above
Chain of Hsa-GABA α2β3γ2 (P47869 29-451): as the sequence (A0A8I3S1N5 29-451) above
Chain of Hsa-GABA α2β3γ2 (P28472 26-473): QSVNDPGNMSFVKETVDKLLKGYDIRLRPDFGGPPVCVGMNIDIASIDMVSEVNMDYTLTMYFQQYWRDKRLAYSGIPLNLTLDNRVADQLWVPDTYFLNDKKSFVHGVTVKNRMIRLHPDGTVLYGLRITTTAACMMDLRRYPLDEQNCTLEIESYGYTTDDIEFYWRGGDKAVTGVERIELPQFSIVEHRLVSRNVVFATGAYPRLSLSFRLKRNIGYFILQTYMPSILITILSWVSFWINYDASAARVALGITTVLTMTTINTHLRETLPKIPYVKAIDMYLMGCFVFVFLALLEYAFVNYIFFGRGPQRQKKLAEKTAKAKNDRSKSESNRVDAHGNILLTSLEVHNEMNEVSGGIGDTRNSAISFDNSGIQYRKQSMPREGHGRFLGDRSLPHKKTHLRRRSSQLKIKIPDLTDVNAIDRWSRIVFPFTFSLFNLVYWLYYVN
Chain of Hsa-GABA α2β3γ2 (P18507 40-467 isoform P18507-1 limits assumed): as the sequence (E2RSQ0 40-467) above

## NCCCC(=O)O [GABA, gamma-aminobutyric acid]
Clu-GABA α1β2γ2; [1]
  pEC50: 5.00
Clu-GABA α1β2γ2; concentration-activation curve
  nH (Hill coefficient): 1.0
Clu-GABA α2β2γ2; [1]
  pEC50: 4.38
Clu-GABA α2β2γ2; concentration-activation curve
  nH (Hill coefficient): 1.3
Clu-GABA α2β3γ2; [1]
  pEC50: 5.07
Clu-GABA α2β3γ2; concentration-activation curve
  nH (Hill coefficient): 1.6
Clu-GABA α3β2γ2; [1]
  pEC50: 4.39
Clu-GABA α3β2γ2; concentration-activation curve
  nH (Hill coefficient): 0.8
Clu-GABA α5β2γ2; [1]
  pEC50: 5.09
Clu-GABA α5β2γ2; concentration-activation curve
  nH (Hill coefficient): 1.1
Hsa-GABA α2β2γ2
  nH (Hill coefficient): 1.4
Hsa-GABA α2β3γ2
  nH (Hill coefficient): 1.2
